Source: ChEMBL document CHEMBL1140718, “Fragment-based discovery of mexiletine derivatives as orally bioavailable inhibitors of urokinase-type plasminogen activator” (J Med Chem, 2008)

What was measured:
[1] = biological target: Urokinase-type plasminogen activator (Homo sapiens, UniProt P00749)
[2] = Volume of distribution in rat at 0.95 mg/kg, iv; type: ADME, organism-based; set-up: dose 0.95 mg/kg, route intravenous; settings: in vivo
[3] = Dissociation constant, pKa of the compound; type: physicochemical
[4] = Clearance in rat at 0.95 mg/kg, iv; type: ADME, organism-based; set-up: dose 0.95 mg/kg, route intravenous; settings: in vivo
[5] = Half life in rat at 0.95 mg/kg, iv; type: ADME, organism-based; set-up: dose 0.95 mg/kg, route intravenous; settings: in vivo
[6] = Oral bioavailability in rat at 4.2 mg/kg; type: ADME, organism-based; settings: in vivo

IC50 [1] [nM]	SMILES	also measured
37	NC(N)=Nc1ncc(Cl)c2ccc(-c3cccc(C(=O)O)c3)cc12	–
20	N=C(N)c1ccc(CNC(=O)[C@H](CO)NC(=O)[C@@H](CO)NS(=O)(=O)Cc2ccccc2)cc1	–
23000	COc1ccccc1NC(=O)c1cc(Cl)c(OCCN)c(Cl)c1	–
1600	Cc1cc(C(=O)Nc2cc(F)cc(N3CCOCC3)c2)cc(C)c1OCCN	–

The remaining lines, values behind:

SMILES	IC50 [1] [nM]	also measured
CCOC(=O)N1CCN(C(=O)[C@H](Cc2cccc(C(=N)N)c2)NS(=O)(=O)c2c(C(C)C)cc(C(C)C)cc2C(C)C)CC1	410	–
CCOc1c(Cl)cc(N2CCCCC2)cc1NC(=O)c1cc(C)c(OC[C@@H](C)N)c(C)c1	460	–
NCCOc1c(Cl)cc(C(=O)Nc2ccccc2)cc1Cl	35000	–
Cc1cc(C(=O)Nc2cccc(OC(C)C)c2)cc(C)c1OCCN	2700	–
Cc1cc(C(=O)Nc2cc(OC(C)C)cc(OC(C)C)c2)cc(C)c1OCCN	72	–
CCOc1c(Cl)cc(N2CCCCC2)cc1NC(=O)c1cc(C)c(OCCN)c(C)c1	–	Vd [2]: 27 L/kg; pKa [3]: 8.75; clearance [4]: 43 mL/min/kg; half-life [5]: 7.5 h; bioavailability [6]: 60%
